Where two headings read alike, the source gives them in different places.
Tests used:
SMARCA4 = SMARCA4 (Homo sapiens, UniProt P51532); experiment: SMARCA4 degradation in cell lines, western blot; format: cell-based
H441 = experiment: Cell proliferation (colony assay) IC50; format: cell-based; details: Homo sapiens, NCI-H441; H441, wild-type SMARCA4
HCC366 = experiment: Cell proliferation (colony assay) IC50; format: cell-based; details: HCC366, mutant SMARCA4
A549 = experiment: Cell proliferation (colony assay) IC50; format: cell-based; details: Homo sapiens; A549, mutant SMARCA4
[1] = system: HCC515 lung cancer xenograft; experiment: In vivo anti-tumor efficacy, HCC515 lung cancer xenograft model; details: female NCR Nude mice, 12.5 mg/kg intraperitoneally once daily in 15% Solutol with 12.5 mg/kg ritonavir, versus vehicle
Protocol: About 1×10^7 HCC515 cells were injected into the flanks of female NCR Nude Mice. Tumor take was monitored visually and by palpation bi-weekly. Once tumors reached an average volume of 100 mm^3 mice were randomized into control and SMARCA2 degrader groups. Treatment cohorts were as follows: Vehicle was 15% Solutol in water together with 12.5 mg/kg of ritonavir as metabolic stabilizer. In the vehicle group, ten animals were injected with vehicle intraperitoneally. In the treatment group, ten animals were injected intraperitoneally once daily with 12.5 mg/kg of the SMARCA2 degrader Compound 101 in 15% Solutol in water together with 12.5 mg/kg of ritonavir as metabolic stabilizer.
Tumor diameter and volume were calculated based on caliper measurements of tumor length and […] using the formula tumor volume=(length×width^2)/2. Tumor volume and body weight were measured three times a week.

SMARCA2 = SMARCA2 (Homo sapiens, UniProt P51531); experiment: Immunohistochemistry of SMARCA2 in H1299 xenograft tumors; format: in vivo; set-up: from tissue; host or cells: H1299 xenograft tumour tissue from female NCR Nude mice; details: NCR Nude mice, 200 mg/kg intraperitoneally once per day for four days
Protocol: NCR Nude mice were injected with vehicle or SMARCA2 degrader Compound 101 (200 mg/kg) once per day for four consecutive days intraperitoneally. Tumor tissues were harvested 24 hours after the last dose and fixed in formalin for 24 hours, paraffin embedded, sectioned and stained according to standard procedures. Briefly, endogenous peroxidases were inactivated by 3% hydrogen peroxide. Non-specific signals were blocked using 3% BSA, 10% goat serum in 0.1% Triton X-100. After antigen retrieval in citrate buffer, slides were stained overnight at 4° C. using SMARCA2 antibodies (Cell Signaling, D9E8B1:2000). After overnight incubation, the slides were washed and incubated with secondary antibody (HRP-polymers, Biocare Medical) for 30 min at room temperature. The slides were washed three times and stained with DAB substrate (ThermoFisher Scientific). The slides were then counterstained with haematoxylin and mounted with mounting medium. The slides were imaged by Vectra microscope and the signal intensity and percentage of cells positive for SMARCA2 was quantified using Vectra 3.0.7 software.

Chain of SMARCA4 (P51532 whole entry): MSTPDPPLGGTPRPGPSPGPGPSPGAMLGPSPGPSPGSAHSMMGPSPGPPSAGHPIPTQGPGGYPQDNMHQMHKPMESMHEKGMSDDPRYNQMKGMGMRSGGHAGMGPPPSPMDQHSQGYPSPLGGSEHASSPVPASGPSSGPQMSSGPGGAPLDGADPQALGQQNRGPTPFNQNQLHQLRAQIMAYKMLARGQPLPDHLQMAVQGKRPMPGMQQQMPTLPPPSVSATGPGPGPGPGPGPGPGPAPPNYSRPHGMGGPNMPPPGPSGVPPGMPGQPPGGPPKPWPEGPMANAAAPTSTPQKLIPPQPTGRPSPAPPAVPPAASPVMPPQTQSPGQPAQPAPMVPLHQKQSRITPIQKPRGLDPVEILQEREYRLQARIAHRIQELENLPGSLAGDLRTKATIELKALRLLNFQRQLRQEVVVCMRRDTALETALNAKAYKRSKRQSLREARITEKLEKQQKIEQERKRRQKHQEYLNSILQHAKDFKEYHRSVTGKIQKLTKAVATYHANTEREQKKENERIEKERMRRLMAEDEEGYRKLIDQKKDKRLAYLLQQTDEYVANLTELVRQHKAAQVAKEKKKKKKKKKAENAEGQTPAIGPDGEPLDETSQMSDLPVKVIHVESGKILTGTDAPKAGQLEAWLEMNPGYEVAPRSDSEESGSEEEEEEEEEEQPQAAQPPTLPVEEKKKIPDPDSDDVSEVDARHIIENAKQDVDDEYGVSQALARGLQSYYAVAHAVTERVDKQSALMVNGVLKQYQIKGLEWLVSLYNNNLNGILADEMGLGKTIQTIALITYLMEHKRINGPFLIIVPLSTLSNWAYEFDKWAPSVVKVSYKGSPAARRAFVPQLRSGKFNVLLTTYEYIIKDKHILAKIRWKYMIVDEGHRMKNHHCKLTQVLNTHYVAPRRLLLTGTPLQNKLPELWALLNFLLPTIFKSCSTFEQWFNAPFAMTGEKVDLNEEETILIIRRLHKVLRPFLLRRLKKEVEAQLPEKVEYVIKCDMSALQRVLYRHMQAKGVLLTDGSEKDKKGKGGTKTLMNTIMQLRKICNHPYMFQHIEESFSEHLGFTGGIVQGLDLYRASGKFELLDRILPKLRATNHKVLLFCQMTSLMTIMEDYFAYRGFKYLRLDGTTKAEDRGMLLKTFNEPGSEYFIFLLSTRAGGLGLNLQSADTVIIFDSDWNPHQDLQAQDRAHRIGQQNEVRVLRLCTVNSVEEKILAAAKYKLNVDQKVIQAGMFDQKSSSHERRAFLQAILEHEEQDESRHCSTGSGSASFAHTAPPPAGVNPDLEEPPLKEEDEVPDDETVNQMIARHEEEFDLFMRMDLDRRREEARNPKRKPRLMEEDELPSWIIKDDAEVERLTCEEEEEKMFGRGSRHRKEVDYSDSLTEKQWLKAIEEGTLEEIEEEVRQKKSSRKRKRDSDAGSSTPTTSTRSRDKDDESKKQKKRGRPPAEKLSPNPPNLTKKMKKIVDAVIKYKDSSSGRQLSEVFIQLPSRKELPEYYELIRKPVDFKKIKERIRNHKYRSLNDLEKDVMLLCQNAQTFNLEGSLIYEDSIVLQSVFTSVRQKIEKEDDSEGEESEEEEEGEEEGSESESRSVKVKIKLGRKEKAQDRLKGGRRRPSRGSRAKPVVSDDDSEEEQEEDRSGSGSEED
Chain of SMARCA2 (P51531 whole entry): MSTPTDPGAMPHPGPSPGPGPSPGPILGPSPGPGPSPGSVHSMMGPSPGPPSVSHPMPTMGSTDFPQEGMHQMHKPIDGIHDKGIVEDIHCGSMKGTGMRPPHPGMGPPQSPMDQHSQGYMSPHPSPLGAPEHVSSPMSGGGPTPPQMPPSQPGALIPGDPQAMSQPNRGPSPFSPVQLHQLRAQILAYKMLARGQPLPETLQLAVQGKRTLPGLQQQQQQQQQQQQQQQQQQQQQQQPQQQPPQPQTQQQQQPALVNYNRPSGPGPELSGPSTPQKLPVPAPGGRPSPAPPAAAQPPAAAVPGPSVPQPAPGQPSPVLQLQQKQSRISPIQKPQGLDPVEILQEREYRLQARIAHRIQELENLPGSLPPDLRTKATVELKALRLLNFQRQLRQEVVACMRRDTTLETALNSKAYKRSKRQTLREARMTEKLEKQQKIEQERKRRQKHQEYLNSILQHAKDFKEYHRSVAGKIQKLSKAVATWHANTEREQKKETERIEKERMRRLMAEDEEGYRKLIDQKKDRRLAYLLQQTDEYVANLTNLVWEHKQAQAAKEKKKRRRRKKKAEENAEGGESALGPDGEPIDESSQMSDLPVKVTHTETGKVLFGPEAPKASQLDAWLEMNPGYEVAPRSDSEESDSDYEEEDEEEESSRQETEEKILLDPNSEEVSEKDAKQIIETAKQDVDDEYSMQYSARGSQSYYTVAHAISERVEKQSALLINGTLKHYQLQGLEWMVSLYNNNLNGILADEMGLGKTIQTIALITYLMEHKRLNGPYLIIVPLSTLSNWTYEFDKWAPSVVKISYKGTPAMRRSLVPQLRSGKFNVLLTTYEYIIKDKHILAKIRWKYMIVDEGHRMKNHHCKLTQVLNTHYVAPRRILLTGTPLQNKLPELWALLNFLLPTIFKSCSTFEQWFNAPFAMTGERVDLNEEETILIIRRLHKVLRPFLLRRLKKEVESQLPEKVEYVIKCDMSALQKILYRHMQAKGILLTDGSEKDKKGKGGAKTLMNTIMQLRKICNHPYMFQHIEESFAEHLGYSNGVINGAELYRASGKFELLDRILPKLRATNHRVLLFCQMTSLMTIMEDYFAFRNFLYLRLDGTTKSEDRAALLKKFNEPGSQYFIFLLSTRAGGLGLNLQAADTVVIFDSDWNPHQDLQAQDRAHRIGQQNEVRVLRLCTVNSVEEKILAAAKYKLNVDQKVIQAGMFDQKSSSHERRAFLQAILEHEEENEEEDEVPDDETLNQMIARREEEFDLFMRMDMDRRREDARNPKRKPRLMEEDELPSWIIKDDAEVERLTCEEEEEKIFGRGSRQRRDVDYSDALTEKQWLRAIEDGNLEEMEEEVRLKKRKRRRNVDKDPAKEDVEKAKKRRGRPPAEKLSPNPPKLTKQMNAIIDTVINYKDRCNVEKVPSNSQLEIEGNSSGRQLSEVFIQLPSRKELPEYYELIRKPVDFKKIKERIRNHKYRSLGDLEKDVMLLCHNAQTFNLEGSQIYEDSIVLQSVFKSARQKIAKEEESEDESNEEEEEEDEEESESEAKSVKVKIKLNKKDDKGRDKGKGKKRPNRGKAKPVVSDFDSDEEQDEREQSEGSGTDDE

SMARCA4 Dmax (%) (SMARCA4; H441, wild-type SMARCA4 cell line): 37%
DC50 (SMARCA4; H441, wild-type SMARCA4 cell line, read-out: SMARCA4 DC50): > 10 µM
DC50 (SMARCA4; H1792, wild-type SMARCA4 cell line, read-out: SMARCA4 DC50): > 10 µM
Dmax (SMARCA4; H1975, H1792, H2122, H441 (Table 3), read-out: SMARCA4 Dmax, span over cell lines): 38 to 50%
SMARCA4 degradation (western blot, in words) (SMARCA4; H1975, H1792, H2122, H441, 0.001-10 μm, increasing concentrations): degraded SMARCA2 and SMARCA4
DC50 (SMARCA4; H1975, wild-type SMARCA4 cell line, read-out: SMARCA4 DC50): > 10 µM
DC50 (SMARCA4; H2122, wild-type SMARCA4 cell line, read-out: SMARCA4 DC50): > 10 µM
DC50 (SMARCA4; H2228, wild-type SMARCA4 cell line, read-out: SMARCA4 DC50): > 10 µM
Dmax (SMARCA4; HCC44, HCC44, wild-type SMARCA4 cell line, read-out: SMARCA4 Dmax (%)): 39%
DC50 (SMARCA4; HCC44, wild-type SMARCA4 cell line, read-out: SMARCA4 DC50): > 10 µM
Dmax (SMARCA4; HCC827, HCC827, wild-type SMARCA4 cell line, read-out: SMARCA4 Dmax (%)): 39%
DC50 (SMARCA4; HCC827, wild-type SMARCA4 cell line, read-out: SMARCA4 DC50): > 10 µM
DC50 (SMARCA4; HCC2279, wild-type SMARCA4 cell line, read-out: SMARCA4 DC50): 0.56 µM
Dmax (SMARCA4; HCC2279, wild-type SMARCA4 cell line, read-out: SMARCA4 Dmax (%)): 79%
DC50 (SMARCA4; HOP62, wild-type SMARCA4 cell line, read-out: SMARCA4 DC50): 1.41 µM
Dmax (SMARCA4; HOP-62, HOP62, wild-type SMARCA4 cell line, read-out: SMARCA4 Dmax (%)): 77%
Dmax (SMARCA4; NCI-H441, H441, wild-type SMARCA4 cell line, read-out: SMARCA4 Dmax (%)): 50%
Dmax (SMARCA4; NCI-H1792, H1792, wild-type SMARCA4 cell line, read-out: SMARCA4 Dmax (%)): 38%
Dmax (SMARCA4; NCI-H2122, H2122, wild-type SMARCA4 cell line, read-out: SMARCA4 Dmax (%)): 47%
Dmax (SMARCA4; NCI-H2228, H2228, wild-type SMARCA4 cell line, read-out: SMARCA4 Dmax (%)): 25%
Dmax (SMARCA4; wild-type SMARCA4 cells (Table 4), read-out: SMARCA4 Dmax, span over cell lines): 38 to 79%
DC50 (SMARCA4; wild-type SMARCA4 cells (Table 4), upper end printed as above 10 μM, read-out: DC50 for SMARCA4 degradation, lower end of span over cell lines): ≥ 0.56 µM
IC50 (H441): > 10 µM
IC50 (HCC366): 0.242 µM
IC50 (A549): > 10 µM
SMARCA2 in tumor tissue by immunohistochemistry (in words) (SMARCA2): significant reduction in SMARCA2
reduction in the percentage of SMARCA2 positive cells (SMARCA2; tumor harvested 24 hours after last dose, versus vehicle): more than 50%
Compound: Nc1nnc(-c2ccccc2O)cc1N1CCN(Cc2ccc(OCCOCCNc3cccc4c3C(=O)N(C3CCC(=O)NC3=O)C4=O)c(F)c2)CC1 (stereo not shown) [Compound 101]
tumor volume (in words) [1]: substantial reduction in tumor volume

Reference: patent US20250109121A1, “POTENT AND SELECTIVE SMARCA2 DEGRADING CHIMERIC MOLECULES AS CANCER THERAPEUTICS” (BOARD OF REGENTS, THE UNIVERSITY OF TEXAS SYSTEM, priority 2021, published 2025)
